Data from paper PMC6222422, “Synthesis and Biological Evaluation of Novel Indole-Derived Thioureas” (Molecules : A Journal of Synthetic Chemistry and Natural …, 2018).
In brackets after ≈: the same amount, converted by molar mass.

Experiments:
M. luteus ATCC 9341 [1] = test: disc diffusion method; type: cell-based, Micrococcus luteus; settings: Micrococcus luteus, ATCC9341, applied 400 µg per disc, dash = lack of the growth inhibition area, read-out: diameter of growth inhibitory zone (GIZ)
B. subtilis ATCC 6633 = test: MIC, twofold serial agar dilution; type: cell-based; settings: Bacillus subtilis, ATCC6633, 18 h, 35 °C, read-out: minimal inhibitory concentrations (MIC)
S. aureus ATCC 29213 [2] = test: disc diffusion method; type: cell-based, Staphylococcus aureus; settings: Staphylococcus aureus, ATCC29213, applied 400 µg per disc, dash = lack of the growth inhibition area, read-out: diameter of growth inhibitory zone (GIZ)
[3] = tested on: S. epidermidis ATCC 12228; test: MIC, twofold serial agar dilution; type: cell-based; settings: Staphylococcus epidermidis, ATCC12228, 18 h, 35 °C, read-out: minimal inhibitory concentrations (MIC)
S. aureus DNA gyrase = S. aureus DNA gyrase (Staphylococcus aureus, UniProt P0A0K8+P20831); test: S. aureus DNA gyrase supercoiling assay; type: biochemical
Chain of S. aureus DNA gyrase (P0A0K8 whole entry): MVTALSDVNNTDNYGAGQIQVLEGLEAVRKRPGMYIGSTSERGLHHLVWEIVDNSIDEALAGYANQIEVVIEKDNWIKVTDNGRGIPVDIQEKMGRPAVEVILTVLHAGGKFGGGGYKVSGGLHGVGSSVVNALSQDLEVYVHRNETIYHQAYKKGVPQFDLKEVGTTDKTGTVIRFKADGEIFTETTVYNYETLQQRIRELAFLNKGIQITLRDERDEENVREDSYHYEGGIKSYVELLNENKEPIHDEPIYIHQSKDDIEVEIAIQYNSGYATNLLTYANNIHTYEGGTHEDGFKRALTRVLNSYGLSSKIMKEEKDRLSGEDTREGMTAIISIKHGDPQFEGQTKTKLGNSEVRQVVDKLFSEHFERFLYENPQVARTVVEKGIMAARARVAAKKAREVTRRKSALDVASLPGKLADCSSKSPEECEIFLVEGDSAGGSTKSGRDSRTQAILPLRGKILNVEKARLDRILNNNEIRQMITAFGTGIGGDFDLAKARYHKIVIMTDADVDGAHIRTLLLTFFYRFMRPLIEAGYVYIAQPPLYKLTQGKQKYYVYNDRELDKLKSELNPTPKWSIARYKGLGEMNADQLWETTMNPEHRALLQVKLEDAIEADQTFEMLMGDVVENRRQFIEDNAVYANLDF
Chain of S. aureus DNA gyrase (P20831 whole entry): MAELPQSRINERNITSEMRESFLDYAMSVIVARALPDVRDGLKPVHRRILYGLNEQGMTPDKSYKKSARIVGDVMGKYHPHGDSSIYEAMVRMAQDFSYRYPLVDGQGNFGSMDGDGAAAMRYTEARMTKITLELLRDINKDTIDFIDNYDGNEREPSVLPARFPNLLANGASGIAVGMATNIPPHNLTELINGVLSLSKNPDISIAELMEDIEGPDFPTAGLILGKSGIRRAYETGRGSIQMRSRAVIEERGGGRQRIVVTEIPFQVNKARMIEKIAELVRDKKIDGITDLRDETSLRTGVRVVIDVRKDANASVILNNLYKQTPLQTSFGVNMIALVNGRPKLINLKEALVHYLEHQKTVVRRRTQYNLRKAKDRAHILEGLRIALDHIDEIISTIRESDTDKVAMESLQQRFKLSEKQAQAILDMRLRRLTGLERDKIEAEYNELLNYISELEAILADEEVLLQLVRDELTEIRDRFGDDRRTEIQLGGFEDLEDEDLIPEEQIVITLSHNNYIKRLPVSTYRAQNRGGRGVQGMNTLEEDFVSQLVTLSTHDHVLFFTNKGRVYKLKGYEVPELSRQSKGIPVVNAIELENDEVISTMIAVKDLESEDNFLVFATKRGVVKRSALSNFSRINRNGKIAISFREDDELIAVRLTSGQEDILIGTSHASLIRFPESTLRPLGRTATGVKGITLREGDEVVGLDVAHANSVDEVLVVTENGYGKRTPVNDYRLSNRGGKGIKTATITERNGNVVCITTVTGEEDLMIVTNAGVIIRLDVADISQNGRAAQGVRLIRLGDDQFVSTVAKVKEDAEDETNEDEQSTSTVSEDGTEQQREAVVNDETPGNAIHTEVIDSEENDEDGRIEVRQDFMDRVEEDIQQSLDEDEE

YFV = test: microbe, parasite or virus in culture; type: cell-based; settings: Yellow fever virus, BHK, read-out: YFV EC50
M. luteus ATCC 10240 = test: disc diffusion method; type: cell-based, Micrococcus luteus; settings: Micrococcus luteus, ATCC10240, applied 400 µg per disc, dash = lack of the growth inhibition area, read-out: diameter of growth inhibitory zone (GIZ)
S. aureus ATCC 25923 [4] = test: MIC, twofold serial agar dilution; type: cell-based; settings: Staphylococcus aureus, ATCC25923, 18 h, 35 °C, read-out: minimal inhibitory concentrations (MIC)
HIV-1 = test: microbe, parasite or virus in culture; settings: Human immunodeficiency virus 1, MT4, read-out: HIV-1 EC50
CV-B5 = test: microbe, parasite or virus in culture; type: cell-based, coxsackievirus B5; settings: Enterovirus B, CVB5, Vero 76, read-out: CV-B5 EC50
Sb-1 = test: microbe, parasite or virus in culture; type: cell-based, poliovirus type-1; settings: Enterovirus C, Vero 76, read-out: Sb-1 EC50
S. aureus ATCC 29213 [5] = test: MIC, twofold serial agar dilution; type: cell-based; settings: Staphylococcus aureus, ATCC29213, 18 h, 35 °C, read-out: minimal inhibitory concentrations (MIC)
RSV = test: microbe, parasite or virus in culture; type: cell-based, human respiratory syncytial virus; settings: human respiratory syncytial virus, Vero 76, read-out: RSV EC50
B. cereus ATCC 11778 = test: disc diffusion method; type: cell-based, Bacillus cereus; settings: Bacillus cereus, ATCC11778, applied 400 µg per disc, dash = lack of the growth inhibition area, read-out: diameter of growth inhibitory zone (GIZ)
in vitro [6] = settings: cattle (Bos taurus)
S. aureus NCTC 4163 [7] = test: MIC, twofold serial agar dilution; type: cell-based; settings: Staphylococcus aureus, NCTC4163, 18 h, 35 °C, read-out: minimal inhibitory concentrations (MIC)
VSV = test: microbe, parasite or virus in culture; type: cell-based; settings: Vesicular stomatitis virus, Vero 76, read-out: VSV EC50
S. epidermidis (MRSE) = test: MIC against hospital strains; settings: Staphylococcus epidermidis
S. aureus NCTC 4163 [8] = test: disc diffusion method; type: cell-based, Staphylococcus aureus; settings: Staphylococcus aureus, NCTC4163, applied 400 µg per disc, dash = lack of the growth inhibition area, read-out: diameter of growth inhibitory zone (GIZ)
[9] = tested on: S. epidermidis ATCC 12228; test: disc diffusion method; type: cell-based, Staphylococcus epidermidis; settings: Staphylococcus epidermidis, ATCC12228, applied 400 µg per disc, dash = lack of the growth inhibition area, read-out: diameter of growth inhibitory zone (GIZ)
S. aureus ATCC 6538 = test: MIC, twofold serial agar dilution; type: cell-based; settings: Staphylococcus aureus, ATCC6538, 18 h, 35 °C, read-out: minimal inhibitory concentrations (MIC)
VV = test: microbe, parasite or virus in culture; type: cell-based; settings: Orthopoxvirus vaccinia, Vero 76, read-out: VV EC50
M. luteus ATCC 9341 [10] = test: MIC, twofold serial agar dilution; type: cell-based; settings: Micrococcus luteus, ATCC9341, 18 h, 35 °C, read-out: minimal inhibitory concentrations (MIC)
[11] = tested on: hospital methicillin-susceptible strains of S. aureus (MSSA); test: MIC against hospital strains; settings: Staphylococcus aureus
Reo-1 = test: microbe, parasite or virus in culture; type: cell-based, reovirus type-1; settings: Reovirus sp., BHK, read-out: Reo-1 EC50
in vitro [12] = settings: African green monkey (Cercopithecus aethiops)
S. aureus ATCC 25923 [13] = test: disc diffusion method; type: cell-based, Staphylococcus aureus; settings: Staphylococcus aureus, ATCC25923, applied 400 µg per disc, dash = lack of the growth inhibition area, read-out: diameter of growth inhibitory zone (GIZ)
[14] = hospital S. epidermidis MRSE strain 430/11
[15] = hospital S. epidermidis MRSE strain 431/11
[16] = hospital S. epidermidis MRSE strain 432/11
[17] = hospital S. epidermidis MRSE strain 433/11
[18] = hospital S. epidermidis MRSE strain 434/11
[19] = hospital S. epidermidis MRSE strain 435/11
[20] = hospital S. epidermidis MRSE strain 436/11
[21] = hospital S. epidermidis MRSE strain 437/11
[22] = hospital S. epidermidis MRSE strain 438/11
[23] = hospital S. epidermidis MRSE strain 439/11
[24] = hospital S. aureus MSSA strain 440/11
[25] = hospital S. aureus MSSA strain 441/11
[26] = hospital S. aureus MSSA strain 442/11
[27] = hospital S. aureus MSSA strain 443/11
[28] = hospital S. aureus MSSA strain 444/11
[29] = hospital S. aureus MSSA strain 445/11
[30] = hospital S. aureus MSSA strain 446/11
[31] = hospital S. aureus MSSA strain 447/11
[32] = hospital S. aureus MSSA strain 448/11
[33] = hospital S. aureus MSSA strain 449/11

## S=C(NCCc1c[nH]c2ccccc12)Nc1cccc(Cl)c1 [Compound 14, 1-(2-(1H-Indol-3-yl)ethyl)-3-(3-chlorophenyl)thiourea]
M. luteus ATCC 9341 [1]
  zone of inhibition at 400 µg/disc: 12 mm
B. subtilis ATCC 6633
  MIC: 50 µg/mL (≈ 152 µM)
S. aureus ATCC 29213 [2]
  zone of inhibition at 400 µg/disc: 15 mm
[3]
  MIC: 50 µg/mL (≈ 152 µM)
S. aureus DNA gyrase; data not shown
  effect against DNA gyrase (in words): not significantly effective
YFV
  EC50: > 6 µM
M. luteus ATCC 10240
  zone of inhibition at 400 µg/disc: 20 mm
S. aureus ATCC 25923 [4]
  MIC: 50 µg/mL (≈ 152 µM)
HIV-1
  EC50: > 42 µM
CV-B5
  EC50: 9 ± 1.2 µM
Sb-1
  EC50: > 32 µM
S. aureus ATCC 29213 [5]
  MIC: 50 µg/mL (≈ 152 µM)
RSV
  EC50: > 32 µM
B. cereus ATCC 11778
  zone of inhibition at 400 µg/disc: 15 mm
In vitro [6]
  CC50: 32 µM
S. aureus NCTC 4163 [7]
  MIC: 50 µg/mL (≈ 152 µM)
VSV
  EC50: > 32 µM
other
  melting point: 169 to 171 °C
S. epidermidis (MRSE); [14]
  MIC: 25 µg/mL (≈ 75.8 µM)
S. epidermidis (MRSE); [15]
  MIC: 6.25 µg/mL (≈ 18.9 µM)
S. epidermidis (MRSE); [16]
  MIC: 25 µg/mL (≈ 75.8 µM)
S. epidermidis (MRSE); [17]
  MIC: 25 µg/mL (≈ 75.8 µM)
S. epidermidis (MRSE); [18]
  MIC: 25 µg/mL (≈ 75.8 µM)
S. epidermidis (MRSE); [19]
  MIC: 25 µg/mL (≈ 75.8 µM)
S. epidermidis (MRSE); [20]
  MIC: 50 µg/mL (≈ 152 µM)
S. epidermidis (MRSE); [21]
  MIC: 25 µg/mL (≈ 75.8 µM)
S. epidermidis (MRSE); [22]
  MIC: 50 µg/mL (≈ 152 µM)
S. epidermidis (MRSE); [23]
  MIC: 25 µg/mL (≈ 75.8 µM)
S. aureus NCTC 4163 [8]
  zone of inhibition at 400 µg/disc: 13 mm
[9]
  zone of inhibition at 400 µg/disc: 12 mm
S. aureus ATCC 6538
  MIC: 50 µg/mL (≈ 152 µM)
VV
  EC50: > 32 µM
M. luteus ATCC 9341 [10]
  MIC: 200 µg/mL (≈ 606 µM)
[11]; [24]
  MIC: 25 µg/mL (≈ 75.8 µM)
[11]; [25]
  MIC: 25 µg/mL (≈ 75.8 µM)
[11]; [26]
  MIC: 25 µg/mL (≈ 75.8 µM)
[11]; [27]
  MIC: 25 µg/mL (≈ 75.8 µM)
[11]; [28]
  MIC: 12.5 µg/mL (≈ 37.9 µM)
[11]; [29]
  MIC: 25 µg/mL (≈ 75.8 µM)
[11]; [30]
  MIC: 25 µg/mL (≈ 75.8 µM)
[11]; [31]
  MIC: 25 µg/mL (≈ 75.8 µM)
[11]; [32]
  MIC: 25 µg/mL (≈ 75.8 µM)
[11]; [33]
  MIC: 25 µg/mL (≈ 75.8 µM)
Reo-1
  EC50: > 6 µM
In vitro [12]
  CC50: 32 µM
S. aureus ATCC 25923 [13]
  zone of inhibition at 400 µg/disc: 14 mm

## S=C(NCCc1c[nH]c2ccccc12)Nc1ccc(Cl)c(Cl)c1 [Compound 6, 1-(2-(1H-indol-3-yl)ethyl)-3-(3,4-dichlorophenyl)thiourea]
M. luteus ATCC 9341 [1]
  zone of inhibition at 400 µg/disc: 15 mm
B. subtilis ATCC 6633
  MIC: 12.5 µg/mL (≈ 34.3 µM)
S. aureus ATCC 29213 [2]
  zone of inhibition at 400 µg/disc: 15 mm
[3]
  MIC: 12.5 µg/mL (≈ 34.3 µM)
S. aureus DNA gyrase; supercoiling of relaxed pBR322 DNA, 30 min, 37 °C, read-out: IC50 ± SEM, S. aureus DNA Gyrase (converted)
  IC50: 199 µM
YFV
  EC50: > 10 µM
M. luteus ATCC 10240
  zone of inhibition at 400 µg/disc: 23 mm
S. aureus ATCC 25923 [4]
  MIC: 6.25 µg/mL (≈ 17.2 µM)
HIV-1
  EC50: > 45 µM
CV-B5
  EC50: > 13 µM
Sb-1
  EC50: > 13 µM
S. aureus ATCC 29213 [5]
  MIC: 6.25 µg/mL (≈ 17.2 µM)
RSV
  EC50: > 13 µM
B. cereus ATCC 11778
  zone of inhibition at 400 µg/disc: 15 mm
In vitro [6]
  CC50: 27 µM
S. aureus NCTC 4163 [7]
  MIC: 6.25 µg/mL (≈ 17.2 µM)
VSV
  EC50: > 13 µM
other
  melting point: 168 to 169 °C
S. epidermidis (MRSE); [14]
  MIC: 6.25 µg/mL (≈ 17.2 µM)
S. epidermidis (MRSE); [15]
  MIC: 6.25 µg/mL (≈ 17.2 µM)
S. epidermidis (MRSE); [16]
  MIC: 6.25 µg/mL (≈ 17.2 µM)
S. epidermidis (MRSE); [17]
  MIC: 6.25 µg/mL (≈ 17.2 µM)
S. epidermidis (MRSE); [18]
  MIC: 12.5 µg/mL (≈ 34.3 µM)
S. epidermidis (MRSE); [19]
  MIC: 6.25 µg/mL (≈ 17.2 µM)
S. epidermidis (MRSE); [20]
  MIC: 6.25 µg/mL (≈ 17.2 µM)
S. epidermidis (MRSE); [21]
  MIC: 6.25 µg/mL (≈ 17.2 µM)
S. epidermidis (MRSE); [22]
  MIC: 6.25 µg/mL (≈ 17.2 µM)
S. epidermidis (MRSE); [23]
  MIC: 6.25 µg/mL (≈ 17.2 µM)
S. aureus NCTC 4163 [8]
  zone of inhibition at 400 µg/disc: 10 mm
[9]
  zone of inhibition at 400 µg/disc: 16 mm
S. aureus ATCC 6538
  MIC: 12.5 µg/mL (≈ 34.3 µM)
VV
  EC50: > 13 µM
M. luteus ATCC 9341 [10]
  MIC: 12.5 µg/mL (≈ 34.3 µM)
[11]; [24]
  MIC: 6.25 µg/mL (≈ 17.2 µM)
[11]; [25]
  MIC: 6.25 µg/mL (≈ 17.2 µM)
[11]; [26]
  MIC: 6.25 µg/mL (≈ 17.2 µM)
[11]; [27]
  MIC: 6.25 µg/mL (≈ 17.2 µM)
[11]; [28]
  MIC: 6.25 µg/mL (≈ 17.2 µM)
[11]; [29]
  MIC: 6.25 µg/mL (≈ 17.2 µM)
[11]; [30]
  MIC: 6.25 µg/mL (≈ 17.2 µM)
[11]; [31]
  MIC: 6.25 µg/mL (≈ 17.2 µM)
[11]; [32]
  MIC: 6.25 µg/mL (≈ 17.2 µM)
[11]; [33]
  MIC: 6.25 µg/mL (≈ 17.2 µM)
Reo-1
  EC50: > 10 µM
In vitro [12]
  CC50: 13 µM
S. aureus ATCC 25923 [13]
  zone of inhibition at 400 µg/disc: 15 mm
